Results on eleven compounds are retold here after ChEMBL document CHEMBL4811277, “Glycyrrhetinic acid derivatives as Zika virus inhibitors: Synthesis and antiviral activity in vitro” (Bioorg Med Chem, 2021).

Data set [1] concerns Zika virus. In words: Antiviral activity against Zika virus infected in human SF-268 cells assessed as reduction in viral NS1 protein synthesis at 10 uM measured at 96 hrs by immunofluorescence assay relative to control. The format is functional.
The test system of data set [2] is Zika virus. The experiment in a line: Antiviral activity against Zika virus infected in human SF-268 cells assessed as inhibition of virus-induced cytopathic effect at 10 uM measured at 96 hrs MTT assay. The format is functional. A general note: Damage to the host cells serves as the signal in cytopathic effect assays.
In data set [3] the test system is Zika virus. In words: Antiviral activity against Zika virus infected in human SF-268 cells assessed as reduction in viral infection by DAPI staining based immunofluorescence assay. In kind it is functional, organism-based.
Data set [4] is described as follows: Therapeutic index, ratio of CC50 for cytotoxicity against human SF-268 cells to IC50 for antiviral activity against Zika virus infected in human SF-268 cells. In kind it is toxicity, cell-based. Particulars: read-out: TI.
Data set [5] concerns Zika virus. The experiment in a line: Antiviral activity against Zika virus infected in SF-268 cells assessed as inhibition of viral infection at entry stage measured after 96 hrs by DAPI staining based fluorescence microscopic analysis. In kind it is functional, organism-based. Particulars: SF-268, 96 h.
The subject of data set [6] is Zika virus. The experiment in a line: Antiviral activity against Zika virus infected in SF-268 cells assessed as inhibition of viral infection at post entry stage after 96 hrs measured after 1 hr post infection by DAPI staining based fluorescence microscopic analysis. In kind it is functional, organism-based.
A short description of data set [7]: Cytotoxicity against human SF-268 cells assessed as inhibition of cell viability measured after 96 hrs by MTT assay. The format is cell-based. Background: Tetrazolium assays rely on reduction of a dye to a coloured formazan, in cell work by metabolically active cells.

The source made the active and inactive calls. The calls are words filed in the database; no cut-off is given here.

One may read the inhibition as the share of the control response that was lost under treatment. On to `COC(=O)[C@@]1(C)CC[C@]2(C)CC[C@]3(C)C(=CCC4[C@@]5(C)Cc6snnc6C(C)(C)C5CC[C@]43C)C2C1` (some centres not stated), for which, in data set [1], the INH turned out to be 55.4%. Besides, in data set [2], the inhibition entry is “Active”.

Turning to `COC(=O)[C@]1(C)C=C2C3=CC(=O)C4[C@@]5(C)CC/C(=N\NC(N)=O)C(C)(C)C5CC[C@@]4(C)[C@]3(C)CC[C@@]2(C)CC1` (some centres not stated), the INH in data set [1] is on record as 62.6%. Further, the inhibition at 10 µM in data set [2] was found to be 63%.

What is called IC50 is the concentration at which inhibition is half-maximal. The term CC50 denotes the concentration at which the toxic effect on the cells reaches its halfway point. `CC(=O)O[C@H]1CC[C@@]2(C)C(CC[C@]3(C)C2C(=O)C=C2C4C[C@@](C)(C(=O)Nc5cccnc5)CC[C@]4(C)CC[C@]23C)C1(C)C` (some centres not stated): the 50% inhibitory concentration (IC50) amounted to 130 nM in data set [3], 680 nM in data set [5] and 1000 nM in data set [6]. For the same compound, the INH in data set [1] stood at 76.3%. The selectivity ratio in data set [4] is > 384. Besides, the inhibition at 10 µM in data set [2] was > 70%. For the same compound, in data set [7], the CC50 at 96 h was > 50000 nM.

With `CC(=O)O[C@H]1CC[C@@]2(C)C(CC[C@]3(C)C2C(=O)C=C2C4C[C@@](C)(C(=O)Nc5nc(-c6ccccc6)cs5)CC[C@]4(C)CC[C@]23C)C1(C)C` (some centres not stated), the INH in data set [1] was 52.3%. Also, the inhibition entry in data set [2] is “Active”.

`COC(=O)[C@@]1(C)CC[C@]2(C)CC[C@]3(C)C(=CC(=O)C4[C@@]5(C)CC/C(=N\NC(N)=O)C(C)(C)C5CC[C@]43C)[C@@H]2C1` (some centres not stated): the INH in data set [1] turned out to be 66.6%. For the same compound, the inhibition at 10 µM in data set [2] was 63%.

Consider `CC(=O)O[C@H]1CC[C@@]2(C)C(CC[C@]3(C)C2C(=O)C=C2C4C[C@@](C)(C(=O)Nc5cnc6ccccc6c5)CC[C@]4(C)CC[C@]23C)C1(C)C` (some centres not stated), for which, in data set [1], the INH is on record as 26.5%. Besides, the inhibition entry in data set [2] is “Active”.

`CCCCOC(=O)[C@@]1(C)CC[C@]2(C)CC[C@]3(C)C(=CC(=O)C4[C@@]5(C)CC/C(=N\NC(N)=O)C(C)(C)C5CC[C@]43C)[C@@H]2C1` (some centres not stated): the IC50 in data set [3] was found to be 550 nM; in data set [5], 1090 nM; in data set [6] it was 450 nM. Also, the INH in data set [1] is 82.8%. In data set [4], the selectivity ratio is > 90.9. Also, the inhibition at 10 µM in data set [2] is > 70%. Further, in data set [7], the 50% cytotoxic concentration (CC50) at 96 h is > 50000 nM.

In the case of `COC(=O)[C@@]1(C)CC[C@]2(C)CC[C@]3(C)C(=CCC4[C@@]5(C)CC/C(=N\NC(N)=S)C(C)(C)C5CC[C@]43C)C2C1` (some centres not stated), the INH in data set [1] is on record as 49.5%. In data set [2], the inhibition entry is “Active”.

In the case of `COC(=O)[C@@]1(C)CC[C@]2(C)CC[C@]3(C)C(=CCC4[C@@]5(C)CC/C(=N\NC(N)=O)C(C)(C)C5CC[C@]43C)C2C1` (some centres not stated), in data set [1], the INH is 49.9%. Also, the inhibition entry in data set [2] was “Active”.

For the compound `CCCCOC(=O)[C@@]1(C)CC[C@]2(C)CC[C@]3(C)C(=CC(=O)C4[C@@]5(C)Cc6snnc6C(C)(C)C5CC[C@]43C)[C@@H]2C1` (some centres not stated), the figures for the half-inhibitory concentration (IC50) in data set [3], in data set [5] and in data set [6] were 560 nM, 500 nM and 430 nM, respectively. The INH in data set [1] is recorded as 82.1%. Besides, the selectivity ratio in data set [4] is > 89.3. In data set [2], the inhibition at 10 µM was > 70%. Also, in data set [7], the CC50 at 96 h is > 50000 nM.

Regarding `COC(=O)[C@@]1(C)CC[C@]2(C)CC[C@]3(C)C(=CC(=O)C4[C@@]5(C)Cc6snnc6C(C)(C)C5CC[C@]43C)[C@@H]2C1` (some centres not stated), the 50% inhibitory concentration (IC50) in data set [3] came out at 290 nM; in data set [5], 620 nM; in data set [6], 1940 nM. The INH in data set [1] is given as 74.9%. The selectivity ratio in data set [4] is > 172. Also, the inhibition at 10 µM in data set [2] is > 70%. Besides, the CC50 at 96 h in data set [7] is > 50000 nM.
